From patent US6416987B1, “Mutants of thymidylate synthase and uses thereof” (Sloan Kettering Institute for Cancer Research, priority 1997, dated 2002)
Where two headings read alike, the source gives them in different places.

How the values were obtained:
TS = TS (Homo sapiens, UniProt P04818); details: enzyme assays; cited from earlier work
cell growth = details: cited from earlier work
[1] = system: mouse bone marrow cells transfected with wild type TS (TS161); experiment: CFU-GM / HPPCFU-C assay, marrow transfected with plasmid TS161; assay type: cell-based
Procedure: (§1) DNA into Mouse Bone Marrow Progenitor Cells Twenty micrograms of plasmid DNA (TS161 or TS175) and ten micrograms of DOTAP were diluted to 100 μl with HBS buffer and incubated at room temperature for 10 minutes. The mixture was added to 2×10^6 mouse bone marrow cells suspended in 0.5 ml of IMDM medium (in a 35 mm culture dish). After a 4 hour incubation at 37° C., 2 ml of IMDM with 30% FBS was added to each dish and the incubation was continued for 24 hours. […] Transfected cells prepared as described above were distributed into 10×35 mm dishes (3×10^5 cells in […] IMDM media/dish). […] Drug was added at the indicated concentration to each dish and the cells were cultured at 37° C. (5% CO2) for 10-14 days.

[2] = system: mouse bone marrow cells (N.B.M.); experiment: CFU-GM / HPPCFU-C assay, N.B.M.; assay type: cell-based
[3] = system: murine bone marrow cells infected with I108A mut-TS vector; experiment: CFU-GM assay, marrow infected with I108A mut-TS retroviral vector; assay type: cell-based
Text: (§2) The following tables 15-17 summarize additional proof that these mutants confer resistance to chemotherapeutic agents by increasing the number of drug resistant CFU-GM colonies formed by murine bone marrow cells infected with retroviral vectors containing these mutant TS cDNAs.

Normal Bone Marrow cells = experiment: CFU-GM assay, Normal Bone Marrow (retroviral vector study); assay type: cell-based, murine
Text: as §2

[4] = system: murine bone marrow cells infected with Wt TS vector; experiment: CFU-GM assay, marrow infected with Wt TS retroviral vector; assay type: cell-based
FPGS = FPGS (Homo sapiens, UniProt Q05932); details: cited from earlier work
Sequence of FPGS (Q05932 43-587, species assumed): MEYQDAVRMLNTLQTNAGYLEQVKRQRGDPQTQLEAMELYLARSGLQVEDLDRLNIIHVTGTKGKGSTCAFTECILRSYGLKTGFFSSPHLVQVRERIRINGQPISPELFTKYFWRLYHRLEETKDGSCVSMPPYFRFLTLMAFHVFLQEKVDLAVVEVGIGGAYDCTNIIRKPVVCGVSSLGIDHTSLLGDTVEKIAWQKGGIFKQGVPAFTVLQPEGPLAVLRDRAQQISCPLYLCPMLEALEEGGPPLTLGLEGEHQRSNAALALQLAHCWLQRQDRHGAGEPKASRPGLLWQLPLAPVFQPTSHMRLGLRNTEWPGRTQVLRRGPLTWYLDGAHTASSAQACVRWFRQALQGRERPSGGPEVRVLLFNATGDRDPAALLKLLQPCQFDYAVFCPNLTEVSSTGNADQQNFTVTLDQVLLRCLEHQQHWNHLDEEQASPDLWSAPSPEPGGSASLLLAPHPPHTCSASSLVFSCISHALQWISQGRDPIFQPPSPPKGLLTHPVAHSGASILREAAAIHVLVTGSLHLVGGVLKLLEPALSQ

[5] = target: TS-negative FSthy21 cells transfected with I108A mutant human TS cDNA (Homo sapiens, UniProt P04818, P2L/I108A, cells depend on it); experiment: Growth inhibition assay (alamar Blue), I108A transfectants; details: read-out: IC50 values, Tomudex, 7-day exposure
Sequence of TS-negative FSthy21 cells transfected with I108A mutant human TS cDNA (P04818 whole entry P2L/I108A): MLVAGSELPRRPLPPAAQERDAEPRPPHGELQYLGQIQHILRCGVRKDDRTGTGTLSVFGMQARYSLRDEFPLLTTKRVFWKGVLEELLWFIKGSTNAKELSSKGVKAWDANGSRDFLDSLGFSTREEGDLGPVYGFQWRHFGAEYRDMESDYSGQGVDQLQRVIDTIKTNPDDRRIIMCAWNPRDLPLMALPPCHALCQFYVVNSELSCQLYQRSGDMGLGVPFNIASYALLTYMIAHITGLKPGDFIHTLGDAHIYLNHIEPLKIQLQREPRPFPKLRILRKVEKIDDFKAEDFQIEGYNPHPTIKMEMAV
Procedure: The mouse TS-negative FSthy21 cells were used as the host for DNA transfections. This cell line, which is a TS-deficient derivative of mouse FM3A cells, was routinely maintained in MEM medium supplemented with 10% fetal bovine serum and 10×10^−5 M thymidine. Transfections were performed by DOTAP, using 10 μg of DNA/culture. Four days after transfection, cells were placed in selective medium, which contain no thymidine and reduced folate. Colonies having the ability to grow in the absence of thymidine were pooled and propagated as a mass culture.
Logarithmically growing suspension mouse TS-20 negative FSthy21 cells transfected with wild-type or variant human TS cDNA were seeded in 96-well plates at 1,000 cells/well in 180 μl of complete medium. […] Cell viability was measured by the alamar Blue™ assay. This method incorporates an oxidation-reduction (REDOX) indicator that both fluoresces and changes color in response to chemical reduction of growth medium resulting from cell growth. To above 96-well cultured cells, 25 μl of Alamar Blue (Alamar, Sacramento, Calif.) (10% of incubation volume) were added according to the manufacturer's instructions. The culture 96-well plates were then incubated at 37° C. for 4 hours. Viable cells induce chemical reduction of the media which results in a change in REDOX color from blue to red. The intensity of red color (and fluoresces) is proportional to the viable cells. After incubation, fluorescence is was read at 530-560 nm excitation wavelength and 590 nm emission wavelength by an automated plate reader (model EL340; Bio-Tek). Drug concentrations needed to reduce cell growth by 50% (IC50 values) were determined graphically by plotting of cell growth verses inhibitor concentration.
The effect of three antifolates and FdUrd on the growth characteristics of transfectants that stably express various TS proteins was evaluated by cytotoxicity studies. Cell growth was measured by the alamar blue assay. IC50 values were calculated as the concentration of inhibitor required to inhibit growth by 50% compared to wild-type transfected cells grown under identical conditions.

[6] = system: mouse bone marrow cells transfected with mutant TS (TS175); experiment: CFU-GM / HPPCFU-C assay, marrow transfected with plasmid TS175; assay type: cell-based
Procedure: as §1

[7] = target: TS-negative FSthy21 cells transfected with wild-type human TS cDNA (Homo sapiens, UniProt P04818, P2L, cells depend on it); experiment: Growth inhibition assay (alamar Blue), TS-negative cells transfected with wild-type human TS cDNA; assay type: cell-based, mouse; details: Tomudex, 7-day exposure, read-out: IC50 values
Sequence of TS-negative FSthy21 cells transfected with wild-type human TS cDNA (P04818 whole entry P2L): as the sequence (P04818 whole entry P2L/I108A) above, with A108I counted along it

Sequence of TS (P04818 whole entry): as the sequence (P04818 whole entry P2L/I108A) above, with L2P, A108I counted along it

For Cc1nc2ccc(CN(C)c3ccc(C(=O)N[C@@H](CCC(=O)O)C(=O)O)s3)cc2c(=O)[nH]1 [Tomudex, N-(5-[N-(3,4-dihydro-2-methyl-4-oxoquinazolin-6-ylmethyl)-N-methylamino-]-2-thenoyl)-L-glutamic acid], the “less potent as a TS inhibitor than CB3717” value (TS) is listed as 20 times, the “more active in inhibiting cell growth than CB3717” value (cell growth) is listed as 500 fold and the CFU-GM colonies ([1]; tomudex 1 × 10^−8 M) is listed as 28. For the same compound, the “CFU-GM colonies, % in parentheses” value ([1]; tomudex 1 × 10^−8 M) was 26%, the HPPCFU-C colonies ([1]; tomudex 1 × 10^−8 M) was 0 and the CFU-GM colonies ([1]; tomudex 2 × 10^−8 M) was 0. For the same compound, the CFU-GM colonies ([2]; tomudex 1 × 10^−8 M) was 14, the “CFU-GM colonies, % in parentheses” value ([2]; tomudex 1 × 10^−8 M) was 17% and the HPPCFU-C colonies ([2]; tomudex 1 × 10^−8 M) was 0. The CFU-GM colonies ([2]; tomudex 2 × 10^−8 M) was 0, the CFU-C ([3]; Tomudex 1 × 10^−8 M) was 53 and the “CFU-C, % in parentheses” value ([3]; Tomudex 1 × 10^−8 M) was 36%. The HPPCFU-C ([3]; Tomudex 1 × 10^−8 M) was 26, the “HPPCFU-C, % in parentheses” value ([3]; Tomudex 1 × 10^−8 M) was 53% and the CFU-C ([3]; Tomudex 2 × 10^−8 M) was 25. The “CFU-C, % in parentheses” value ([3]; Tomudex 2 × 10^−8 M) was 15%, the CFU-C (Normal Bone Marrow cells; Tomudex 1 × 10^−8 M) was 16 and the “CFU-C, % in parentheses” value (Normal Bone Marrow cells; Tomudex 1 × 10^−8 M) was 10%. It also gave an HPPCFU-C (Normal Bone Marrow cells; Tomudex 1 × 10^−8 M) of 0, a CFU-C (Normal Bone Marrow cells; Tomudex 2 × 10^−8 M) of 0 and a CFU-C ([4]; Tomudex 1 × 10^−8 M) of 33. The “CFU-C, % in parentheses” value ([4]; Tomudex 1 × 10^−8 M) was 20%, the HPPCFU-C ([4]; Tomudex 1 × 10^−8 M) was 10 and the “HPPCFU-C, % in parentheses” value ([4]; Tomudex 1 × 10^−8 M) was 23%. The CFU-C ([4]; Tomudex 2 × 10^−8 M) was 10, the “CFU-C, % in parentheses” value ([4]; Tomudex 2 × 10^−8 M) was 6% and the “affinity for FPGS higher than that of CB3717” value (FPGS) was 30 times. It also gave a GI50 ([5]; 1108A/clone (1) [175-1]) of 97.9 ± 17.1 nM, a GI50 ([5]; 1108A/clone (2) [175-2]) of 76.8 ± 7.3 nM and a GI50 ([5]; 1108A/clone (3) [175-3]) of 174 ± 7 nM. For the same compound, the CFU-GM colonies ([6]; tomudex 1 × 10^−8 M) was 64, the “CFU-GM colonies, % in parentheses” value ([6]; tomudex 1 × 10^−8 M) was 44% and the HPPCFU-C colonies ([6]; tomudex 1 × 10^−8 M) was 9. For the same compound, the “HPPCFU-C colonies, % in parentheses” value ([6]; tomudex 1 × 10^−8 M) was 6%, the CFU-GM colonies ([6]; tomudex 2 × 10^−8 M) was 14 and the “CFU-GM colonies, % in parentheses” value ([6]; tomudex 2 × 10^−8 M) was 10%. For the same compound, the GI50 ([7]; wild-type/clone (1) [161-1]) was 2.37 ± 0.18 nM, the GI50 ([7]; wild-type/clone (2) [161-2]) was 1.8 ± 0.47 nM and the GI50 ([7]; wild-type/clone (3) [161-3]) was 3.37 ± 0.34 nM.
